Test results as given in patent US7074789B2, “Kinase inhibitors” (Amgen Inc., priority 1999, dated 2006).

Experiments:
Format in all cases: biochemical
FGFR1 = target: T1, FGFR1 (Homo sapiens, UniProt P11362); assay: Kinase inhibition assay (33P transfer), FGFR1; settings: read-out: FGFR1-1
T1 construct: Kinases are expressed as either kinase domains or full length constructs; made in house

AKT = target: T2, AKT (Homo sapiens, UniProt Q9Y243); assay: Kinase inhibition assay (33P transfer), AKT; settings: Table 2, kinase inhibition class; read-out: AKT3-1
T2 construct: Kinases are expressed as either kinase domains or full length constructs; made in house
T2 sequence (Q9Y243 whole entry, the tested form may be a part): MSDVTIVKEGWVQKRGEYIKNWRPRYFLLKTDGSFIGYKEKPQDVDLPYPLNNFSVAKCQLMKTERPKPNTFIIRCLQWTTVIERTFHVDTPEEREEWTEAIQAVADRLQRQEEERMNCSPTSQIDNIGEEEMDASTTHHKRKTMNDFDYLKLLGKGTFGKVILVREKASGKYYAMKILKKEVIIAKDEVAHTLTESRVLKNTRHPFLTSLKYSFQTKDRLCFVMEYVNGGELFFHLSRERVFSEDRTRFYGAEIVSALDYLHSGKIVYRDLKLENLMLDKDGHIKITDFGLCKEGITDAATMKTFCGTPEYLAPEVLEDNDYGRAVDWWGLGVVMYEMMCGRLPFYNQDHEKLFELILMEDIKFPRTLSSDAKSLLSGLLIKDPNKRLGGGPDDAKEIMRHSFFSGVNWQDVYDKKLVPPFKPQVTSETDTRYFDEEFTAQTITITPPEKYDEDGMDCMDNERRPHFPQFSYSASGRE
In short: (§1)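 Kinase domain or full-length constructs, GST- or polyHis-tagged, expressed in E. coli or baculovirus-High Five cells, sometimes with regulatory polypeptides. Activity measured as 33PO4 transfer from ATP to plate-bound poly(Glu,Tyr) 4:1 or poly(Arg,Ser) 3:1; after incubation, plates washed with 0.5% phosphoric acid and counted by liquid scintillation.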

Src = target: T3, Src (Homo sapiens, UniProt P12931); assay: Kinase inhibition assay (33P transfer), Src; settings: Table 6, Src-1 kinase inhibition class
T3 construct: Kinases are expressed as either kinase domains or full length constructs; made in house
In short: (§2)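 Recombinant kinase domains or full-length GST- or His-tagged constructs, from E. coli or baculovirus/High Five cells, sometimes with regulatory polypeptides. Transfer of 33P from ATP to plate-bound poly(Glu,Tyr) 4:1 or poly(Arg,Ser) 3:1 counted by liquid scintillation after phosphoric acid wash; IC50 is the concentration halving incorporation.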

IGFR-1 = target: T4, IGFR-1 (Homo sapiens, UniProt P08069); assay: Kinase inhibition assay (33P transfer), IGFR-1; settings: Table 2, kinase inhibition class
T4 construct: Kinases are expressed as either kinase domains or full length constructs; made in house
T4 sequence (P08069 31-1367): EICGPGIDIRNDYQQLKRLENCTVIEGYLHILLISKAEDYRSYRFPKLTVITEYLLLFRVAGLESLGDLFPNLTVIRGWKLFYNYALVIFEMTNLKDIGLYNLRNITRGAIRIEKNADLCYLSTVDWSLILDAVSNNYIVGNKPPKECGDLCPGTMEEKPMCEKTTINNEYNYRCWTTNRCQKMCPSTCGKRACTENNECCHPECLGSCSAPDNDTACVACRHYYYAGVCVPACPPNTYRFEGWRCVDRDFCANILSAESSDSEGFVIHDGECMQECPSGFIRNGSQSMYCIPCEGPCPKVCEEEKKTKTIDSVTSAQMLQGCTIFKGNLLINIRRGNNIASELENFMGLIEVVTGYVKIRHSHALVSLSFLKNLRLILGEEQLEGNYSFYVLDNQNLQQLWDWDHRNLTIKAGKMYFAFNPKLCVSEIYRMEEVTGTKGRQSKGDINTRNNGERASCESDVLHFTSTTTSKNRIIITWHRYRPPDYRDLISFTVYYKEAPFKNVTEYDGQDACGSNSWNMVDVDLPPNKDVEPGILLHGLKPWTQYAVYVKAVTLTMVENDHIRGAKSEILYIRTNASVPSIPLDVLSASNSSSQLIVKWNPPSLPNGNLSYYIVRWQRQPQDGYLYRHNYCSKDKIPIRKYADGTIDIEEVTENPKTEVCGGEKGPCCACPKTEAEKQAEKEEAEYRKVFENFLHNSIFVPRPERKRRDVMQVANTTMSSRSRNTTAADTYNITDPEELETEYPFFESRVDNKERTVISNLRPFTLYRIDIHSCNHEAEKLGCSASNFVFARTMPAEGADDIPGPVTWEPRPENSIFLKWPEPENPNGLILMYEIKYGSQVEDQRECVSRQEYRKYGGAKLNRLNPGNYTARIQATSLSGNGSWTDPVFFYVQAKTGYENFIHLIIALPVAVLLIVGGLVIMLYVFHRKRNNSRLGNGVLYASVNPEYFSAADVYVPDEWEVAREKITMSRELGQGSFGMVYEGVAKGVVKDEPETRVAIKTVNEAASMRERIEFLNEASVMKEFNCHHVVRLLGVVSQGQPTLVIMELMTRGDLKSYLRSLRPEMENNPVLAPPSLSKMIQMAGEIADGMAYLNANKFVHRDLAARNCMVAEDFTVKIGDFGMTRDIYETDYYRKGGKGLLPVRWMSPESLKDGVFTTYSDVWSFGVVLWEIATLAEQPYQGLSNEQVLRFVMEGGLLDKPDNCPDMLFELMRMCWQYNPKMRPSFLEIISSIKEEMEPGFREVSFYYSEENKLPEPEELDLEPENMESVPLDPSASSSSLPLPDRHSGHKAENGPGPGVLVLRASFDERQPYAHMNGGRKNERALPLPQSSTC

Flt-1 = target: T5, Flt-1 (Homo sapiens, UniProt P17948); assay: Kinase inhibition assay (33P transfer), Flt-1
T5 construct: Kinases are expressed as either kinase domains or full length constructs; made in house
In short: as §2

PDGFRB = target: T6, PDGFRB (Homo sapiens, UniProt P09619); assay: Kinase inhibition assay (33P transfer), PDGFRB; settings: read-out: PDGFRB-1
T6 construct: Kinases are expressed as either kinase domains or full length constructs; made in house

c-Met = target: T7, c-Met (Homo sapiens, UniProt P08581); assay: Kinase inhibition assay (33P transfer), c-Met; settings: Table 2, kinase inhibition class; read-out: Met-1
T7 construct: Kinases are expressed as either kinase domains or full length constructs; made in house
In short: as §2

ErbB4 = target: T8, ErbB4 (Homo sapiens, UniProt Q15303); assay: Kinase inhibition assay (33P transfer), ErbB4; settings: read-out: ErbB4-1
T8 construct: Kinases are expressed as either kinase domains or full length constructs; made in house
T8 sequence (Q15303 26-1308, species assumed): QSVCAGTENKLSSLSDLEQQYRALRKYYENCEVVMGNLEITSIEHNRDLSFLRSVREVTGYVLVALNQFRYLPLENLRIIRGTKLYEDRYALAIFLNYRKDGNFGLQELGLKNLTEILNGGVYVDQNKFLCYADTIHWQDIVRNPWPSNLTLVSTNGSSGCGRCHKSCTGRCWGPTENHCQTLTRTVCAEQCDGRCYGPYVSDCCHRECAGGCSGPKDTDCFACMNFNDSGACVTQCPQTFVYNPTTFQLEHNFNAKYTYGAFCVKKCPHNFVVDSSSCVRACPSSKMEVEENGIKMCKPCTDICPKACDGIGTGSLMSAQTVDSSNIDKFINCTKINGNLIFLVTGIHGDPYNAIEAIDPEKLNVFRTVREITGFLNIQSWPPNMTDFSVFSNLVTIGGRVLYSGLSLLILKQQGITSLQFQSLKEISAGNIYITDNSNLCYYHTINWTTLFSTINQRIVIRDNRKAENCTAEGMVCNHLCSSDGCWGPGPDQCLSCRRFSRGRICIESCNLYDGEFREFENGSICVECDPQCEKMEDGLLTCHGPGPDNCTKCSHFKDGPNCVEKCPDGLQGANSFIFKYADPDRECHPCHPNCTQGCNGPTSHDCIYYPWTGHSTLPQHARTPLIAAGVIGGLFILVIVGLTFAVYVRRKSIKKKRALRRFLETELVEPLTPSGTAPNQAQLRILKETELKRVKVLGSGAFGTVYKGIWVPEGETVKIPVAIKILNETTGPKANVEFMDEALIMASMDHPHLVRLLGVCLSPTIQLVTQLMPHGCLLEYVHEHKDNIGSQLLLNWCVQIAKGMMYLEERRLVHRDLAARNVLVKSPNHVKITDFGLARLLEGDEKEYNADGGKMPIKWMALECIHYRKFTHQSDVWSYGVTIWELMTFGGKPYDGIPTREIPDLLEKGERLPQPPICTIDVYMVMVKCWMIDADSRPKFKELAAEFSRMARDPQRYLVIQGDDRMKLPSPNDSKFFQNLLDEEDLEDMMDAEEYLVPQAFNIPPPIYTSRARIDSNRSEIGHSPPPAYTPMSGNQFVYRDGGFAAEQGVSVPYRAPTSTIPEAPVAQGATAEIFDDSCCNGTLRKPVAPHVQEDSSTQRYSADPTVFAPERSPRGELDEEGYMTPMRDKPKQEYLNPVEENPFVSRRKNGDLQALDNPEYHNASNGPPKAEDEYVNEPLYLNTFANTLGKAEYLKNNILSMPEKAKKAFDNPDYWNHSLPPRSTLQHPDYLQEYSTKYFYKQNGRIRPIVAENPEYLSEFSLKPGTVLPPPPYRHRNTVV

EGFR = target: T9, EGFR (Homo sapiens, UniProt P00533); assay: Kinase inhibition assay (33P transfer), EGFR; settings: Table 2, kinase inhibition class; read-out: EGFR-1
T9 construct: Kinases are expressed as either kinase domains or full length constructs; made in house
In short: as §2

Lyn = target: T10, Lyn (Homo sapiens, UniProt P07948); assay: Kinase inhibition assay (33P transfer), Lyn; settings: Table 6, Lyn-1 kinase inhibition class
T10 construct: Kinases are expressed as either kinase domains or full length constructs; made in house
T10 sequence (P07948 whole entry, species assumed, the tested form may be a part): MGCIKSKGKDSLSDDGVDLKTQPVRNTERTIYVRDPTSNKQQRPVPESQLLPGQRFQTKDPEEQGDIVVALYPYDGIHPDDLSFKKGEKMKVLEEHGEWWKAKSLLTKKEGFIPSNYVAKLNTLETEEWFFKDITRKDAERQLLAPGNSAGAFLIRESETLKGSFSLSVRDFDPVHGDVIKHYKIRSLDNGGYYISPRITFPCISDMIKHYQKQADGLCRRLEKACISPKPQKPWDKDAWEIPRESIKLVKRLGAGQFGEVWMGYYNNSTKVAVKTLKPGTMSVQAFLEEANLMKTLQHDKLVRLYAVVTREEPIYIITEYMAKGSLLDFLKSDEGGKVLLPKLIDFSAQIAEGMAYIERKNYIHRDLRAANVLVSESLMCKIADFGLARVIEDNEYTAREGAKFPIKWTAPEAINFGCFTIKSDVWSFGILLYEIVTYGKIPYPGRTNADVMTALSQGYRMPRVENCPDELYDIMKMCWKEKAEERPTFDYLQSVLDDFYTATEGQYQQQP
In short: as §2

Tek = target: T11, Tek (Homo sapiens, UniProt Q02763); assay: Kinase inhibition assay (33P transfer), Tek; settings: read-out: Tek-1
T11 construct: Kinases are expressed as either kinase domains or full length constructs; made in house
In short: as §2

Hck-1 = target: T12, Hck-1 (Homo sapiens, UniProt P08631); assay: Kinase inhibition assay (33P transfer), Hck; settings: Table 6, Hck-1 kinase inhibition class
T12 construct: Kinases are expressed as either kinase domains or full length constructs; made in house

Fyn = target: T13, Fyn (Homo sapiens, UniProt P06241); assay: Kinase inhibition assay (33P transfer), Fyn; settings: read-out: Fyn-1
T13 construct: Kinases are expressed as either kinase domains or full length constructs; made in house
T13 sequence (P06241 whole entry, species assumed, the tested form may be a part): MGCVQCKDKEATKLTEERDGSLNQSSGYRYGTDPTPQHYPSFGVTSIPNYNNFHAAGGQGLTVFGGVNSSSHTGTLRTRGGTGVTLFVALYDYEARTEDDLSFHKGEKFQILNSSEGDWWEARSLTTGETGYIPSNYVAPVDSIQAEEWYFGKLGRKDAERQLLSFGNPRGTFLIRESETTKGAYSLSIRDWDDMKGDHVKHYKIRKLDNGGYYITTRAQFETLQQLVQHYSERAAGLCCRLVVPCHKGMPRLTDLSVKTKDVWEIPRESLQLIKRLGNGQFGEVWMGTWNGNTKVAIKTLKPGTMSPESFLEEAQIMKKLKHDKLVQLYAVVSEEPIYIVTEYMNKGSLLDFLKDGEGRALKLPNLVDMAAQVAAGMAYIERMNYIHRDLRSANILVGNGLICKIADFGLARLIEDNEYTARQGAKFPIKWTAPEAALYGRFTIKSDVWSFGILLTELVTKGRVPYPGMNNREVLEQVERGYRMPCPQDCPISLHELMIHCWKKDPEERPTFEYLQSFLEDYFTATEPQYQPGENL
In short: as §2

Lck = target: T14, Lck (Homo sapiens, UniProt P06239); assay: Kinase inhibition assay (33P transfer), Lck; settings: Table 3; read-out: Lck-1
T14 construct: Kinases are expressed as either kinase domains or full length constructs; made in house
T14 sequence (P06239 whole entry, species assumed, the tested form may be a part): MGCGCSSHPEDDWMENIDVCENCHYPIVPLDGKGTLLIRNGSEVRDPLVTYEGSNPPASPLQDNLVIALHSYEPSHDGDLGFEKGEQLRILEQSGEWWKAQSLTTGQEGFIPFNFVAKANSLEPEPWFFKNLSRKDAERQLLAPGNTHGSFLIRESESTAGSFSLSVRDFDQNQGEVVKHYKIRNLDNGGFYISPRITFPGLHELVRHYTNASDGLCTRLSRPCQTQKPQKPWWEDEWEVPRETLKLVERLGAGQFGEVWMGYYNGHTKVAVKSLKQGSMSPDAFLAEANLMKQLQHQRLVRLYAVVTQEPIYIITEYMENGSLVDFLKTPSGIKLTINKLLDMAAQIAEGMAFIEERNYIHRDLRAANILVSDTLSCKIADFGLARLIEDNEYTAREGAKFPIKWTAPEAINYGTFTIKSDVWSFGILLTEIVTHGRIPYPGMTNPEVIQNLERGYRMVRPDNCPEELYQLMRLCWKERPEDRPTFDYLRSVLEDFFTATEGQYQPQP
In short: as §1

EPHB4 = target: T15, EPHB4 (Homo sapiens, UniProt P54760); assay: Kinase inhibition assay (33P transfer), EPHB4; settings: read-out: EPHB4-1
T15 construct: Kinases are expressed as either kinase domains or full length constructs; made in house
T15 sequence (P54760 16-987): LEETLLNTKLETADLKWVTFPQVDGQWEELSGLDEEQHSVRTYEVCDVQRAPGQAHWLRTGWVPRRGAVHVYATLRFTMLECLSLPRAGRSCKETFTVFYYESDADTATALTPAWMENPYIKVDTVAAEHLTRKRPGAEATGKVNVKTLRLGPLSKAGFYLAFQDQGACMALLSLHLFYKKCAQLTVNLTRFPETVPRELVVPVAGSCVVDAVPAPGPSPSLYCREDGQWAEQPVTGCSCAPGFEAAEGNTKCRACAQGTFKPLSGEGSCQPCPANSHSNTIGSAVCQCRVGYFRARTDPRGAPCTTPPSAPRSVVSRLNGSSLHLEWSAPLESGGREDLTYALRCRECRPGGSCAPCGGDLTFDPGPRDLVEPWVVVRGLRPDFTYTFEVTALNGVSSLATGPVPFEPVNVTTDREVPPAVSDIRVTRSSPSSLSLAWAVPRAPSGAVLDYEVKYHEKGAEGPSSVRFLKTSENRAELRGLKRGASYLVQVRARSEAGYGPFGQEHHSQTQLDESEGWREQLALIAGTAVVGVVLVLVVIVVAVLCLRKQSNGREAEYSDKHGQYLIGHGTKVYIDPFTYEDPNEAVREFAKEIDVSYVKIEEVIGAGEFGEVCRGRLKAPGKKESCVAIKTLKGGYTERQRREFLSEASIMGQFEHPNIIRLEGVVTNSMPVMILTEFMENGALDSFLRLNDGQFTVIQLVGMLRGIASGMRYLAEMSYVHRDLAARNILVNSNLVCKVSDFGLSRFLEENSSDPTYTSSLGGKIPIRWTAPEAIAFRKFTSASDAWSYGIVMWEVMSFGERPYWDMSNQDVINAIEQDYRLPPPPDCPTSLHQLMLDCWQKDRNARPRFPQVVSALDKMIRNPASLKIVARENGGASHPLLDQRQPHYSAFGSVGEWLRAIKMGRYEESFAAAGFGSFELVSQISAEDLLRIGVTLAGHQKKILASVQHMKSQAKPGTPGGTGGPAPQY

| SMILES | IC50 (FGFR1) | IC50 (AKT) | IC50 (Src) | IC50 (IGFR-1) | IC50 (Flt-1) | IC50 (PDGFRB) | IC50 (c-Met) | IC50 (ErbB4) | IC50 (EGFR) | IC50 (Lyn) | IC50 (Tek) | IC50 (Hck-1) | IC50 (Fyn) | IC50 (Lck) | IC50 (EPHB4) |
| --- | --- | --- | --- | --- | --- | --- | --- | --- | --- | --- | --- | --- | --- | --- | --- |
| COc1cc(Nc2ncnc(Nc3cccc4cccnc34)n2)cc(OC)c1OC [Compound 97] | 5.93 to 8.65 µM | > 11.1 µM | > 11.1 µM | > 11.1 µM | 5.93 to 8.65 µM | < 0.989 µM | > 11.1 µM | > 11.1 µM | > 11.1 µM | 0.989 to 5.93 µM | > 11.1 µM | > 11.1 µM | 5.93 to 8.65 µM | 8.65 to 11.1 µM | > 11.1 µM |
| COc1cc(Nc2ncnc(-n3c(Nc4ccccc4C)nc4ccccc43)n2)cc(OC)c1OC [Compound 384] | 0.827 to 4.96 µM | > 9.31 µM | > 9.31 µM | > 9.31 µM | > 9.31 µM | < 0.827 µM | 7.24 to 9.31 µM | > 9.31 µM | 7.24 to 9.31 µM | < 0.827 µM | > 9.31 µM | > 9.31 µM | 0.827 to 4.96 µM | < 0.827 µM | 0.827 to 4.96 µM |
| COc1cccc(Nc2ncnc(Nc3cc(OC)c(OC)c(OC)c3)n2)c1 [Compound 87] | 6.26 to 9.13 µM | > 11.7 µM | 1.04 to 6.26 µM | < 1.04 µM | 9.13 to 11.7 µM | < 1.04 µM | > 11.7 µM | 9.13 to 11.7 µM | 1.04 to 6.26 µM | 1.04 to 6.26 µM | > 11.7 µM | > 11.7 µM | 1.04 to 6.26 µM | 1.04 to 6.26 µM | > 11.7 µM |
| COc1cc(Nc2ncnc(-n3c(Nc4ccc5[nH]ccc5c4)nc4ccccc43)n2)cc(OC)c1OC [Compound 376] | < 0.787 µM | > 8.85 µM | > 8.85 µM | 0.787 to 4.72 µM | < 0.787 µM | < 0.787 µM | 4.72 to 6.88 µM | 6.88 to 8.85 µM | 6.88 to 8.85 µM | < 0.787 µM | 0.787 to 4.72 µM | > 8.85 µM | 0.787 to 4.72 µM | < 0.787 µM | 6.88 to 8.85 µM |
| COc1cc(Nc2ncnc(Nc3cc(C)c(O)cc3C)n2)cc(OC)c1OC [Compound 94] | > 11.3 µM | > 11.3 µM | 1.01 to 6.04 µM | 6.04 to 8.81 µM | 8.81 to 11.3 µM | 1.01 to 6.04 µM | > 11.3 µM | 1.01 to 6.04 µM | < 1.01 µM | < 1.01 µM | > 11.3 µM | > 11.3 µM | < 1.01 µM | < 1.01 µM | 1.01 to 6.04 µM |
| COc1cc(Nc2ncnc(Nc3ccc4[nH]ccc4c3)n2)cc(OC)c1OC [Compound 928] | 1.02 to 6.12 µM | 8.92 to 11.5 µM | < 1.02 µM | < 1.02 µM | < 1.02 µM | < 1.02 µM | 6.12 to 8.92 µM | 1.02 to 6.12 µM | < 1.02 µM | < 1.02 µM | > 11.5 µM | > 11.5 µM | > 11.5 µM | < 1.02 µM | < 1.02 µM |
| COc1cc(Nc2ncnc(Nc3ccc4[nH]ncc4c3)n2)cc(OC)c1OC [Compound 79] | 6.1 to 8.9 µM | > 11.4 µM | < 1.02 µM | < 1.02 µM | 1.02 to 6.1 µM | 1.02 to 6.1 µM | 6.1 to 8.9 µM | 1.02 to 6.1 µM | < 1.02 µM | < 1.02 µM | > 11.4 µM | > 11.4 µM | 1.02 to 6.1 µM | < 1.02 µM | < 1.02 µM |
| COc1cc(Nc2ncnc(-n3cc(CC(N)=O)c4ccccc43)n2)cc(OC)c1OC [Compound 353] | 0.921 to 5.52 µM | > 10.4 µM | > 10.4 µM | > 10.4 µM | < 0.921 µM | < 0.921 µM | > 10.4 µM | > 10.4 µM | > 10.4 µM | > 10.4 µM | > 10.4 µM | > 10.4 µM | 8.06 to 10.4 µM | 8.06 to 10.4 µM | > 10.4 µM |
| COc1cc(Nc2ncnc(-n3c(Nc4ccc(C)cc4)nc4ccccc43)n2)cc(OC)c1OC [Compound 385] | < 0.827 µM | > 9.31 µM | > 9.31 µM | > 9.31 µM | < 0.827 µM | < 0.827 µM | > 9.31 µM | > 9.31 µM | > 9.31 µM | 0.827 to 4.96 µM | > 9.31 µM | > 9.31 µM | > 9.31 µM | 0.827 to 4.96 µM | > 9.31 µM |
| COc1cc(Nc2ncnc(Nc3cccc4ccccc34)n2)cc(OC)c1OC [Compound 98] | 5.95 to 8.68 µM | > 11.2 µM | > 11.2 µM | > 11.2 µM | > 11.2 µM | > 11.2 µM | > 11.2 µM | > 11.2 µM | < 0.991 µM | 0.991 to 5.95 µM | > 11.2 µM | > 11.2 µM | 0.991 to 5.95 µM | < 0.991 µM | > 11.2 µM |
